Like-named read-outs stand apart in the source and are kept apart here.
Experiments:
[1] = biological target: T1, CIB1 and αIIb interaction (CIB1-GST : F-αIIb peptide) (Homo sapiens, UniProt Q99828); assay: FP assay, 1536-well qHTS format (primary and confirmatory screen); format: binding; conditions: for Curve Class (confirmatory screen) / CONFIRMATORY SCREEN Curve Class: qHTS curve class
T1 construct: made in house; host or cells: BL-21 plus RIL cells (E. coli)
T1 sequence (Q99828 1-191): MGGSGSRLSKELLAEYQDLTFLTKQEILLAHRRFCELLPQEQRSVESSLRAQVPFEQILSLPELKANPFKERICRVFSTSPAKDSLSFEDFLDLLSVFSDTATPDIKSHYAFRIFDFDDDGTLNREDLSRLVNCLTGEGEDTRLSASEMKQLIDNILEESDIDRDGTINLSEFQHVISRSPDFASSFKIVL

[2] = biological target: T2, GST-CIB1 : F-scrambled peptide (Homo sapiens, UniProt Q99828); assay: FP scrambled-peptide counter screen, 1536-well format; format: binding; conditions: for Curve Class (counterscreen) / COUNTERSCREEN Curve Class: qHTS curve class; for IC50: read-out: IC50 [μM] (counterscreen)
T2 construct: made in house; host or cells: BL-21 plus RIL cells (E. coli)
T2 sequence (Q99828 1-191): T1 sequence (Q99828 1-191)

[3] = Table S3, confirmatory screen, YES/NO call
[4] = Table S3, confirmatory screen, a negative sign marks inhibitory curves
[5] = Table S3, confirmatory screen, negative = inhibition
[6] = Table S3, confirmatory screen, read-out: IC50 [μM] (confirmatory screen)
[7] = qHTS FP screen hits, Table S2, negative = inhibition
[8] = qHTS FP screen hits, Table S2, one class per curve where COUNT > 1, negative sign = inhibitory curve
[9] = qHTS FP screen hits, Table S2, read-out: IC50
[10] = Table S3, counterscreen, a negative sign marks inhibitory curves
[11] = Table S3, counterscreen, negative = inhibition
[12] = qHTS primary screen hits, Table S2, negative = inhibition
[13] = qHTS primary screen hits, Table S2, negative sign = inhibitory curve, several classes where COUNT > 1
[14] = qHTS primary screen hits, Table S2, read-out: IC50
[15] = confirmatory screen, negative sign = inhibitory curve
[16] = qHTS primary screen hits, Table S2, negative sign = inhibitory curve
[17] = scrambled-peptide counterscreen

| Structure (SMILES) | Confirm? (confirmatory screen) [1, 3] | Curve Class (confirmatory screen) [1, 4] | Efficacy (%) (confirmatory screen) [1, 5] | IC50 [1, 6] [µM] | Curve Class (counterscreen) [2, 10] | Efficacy (%) (counterscreen) [2, 11] | IC50 ([2]; Table S3, counterscreen) [µM] | Efficacy (%) [1, 12] [%] | Curve Class [1, 13] | IC50 [1, 14] [µM] | other results |
| --- | --- | --- | --- | --- | --- | --- | --- | --- | --- | --- | --- |
| O=C1c2ccccc2C(=O)c2c1ccc(O)c2O [NCGC00095227-06] | YES | -1.1 | -175 | 17.8 | -2.1 | -195 | 22.4 |  |  |  | Efficacy (%) [1, 7]: -161%; Curve Class [1, 8]: -2.1; IC50 [1, 9]: 35.5 µM |
| Cc1coc2c1C(=O)C(=O)c1c-2ccc2c1CCCC2(C)C [NCGC00095709-08] | YES | -1.2 | -67 | 39.8 | -2.2 | -67 | 39.8 |  |  |  | Efficacy (%) [1, 7]: -65%; Curve Class [1, 8]: -2.2; IC50 [1, 9]: 79.4 µM |
| CC(O)C(=O)O.CCOc1ccc2nc3cc(N)ccc3c(N)c2c1.O [NCGC00096056-02] | YES | -2.1 | -162 | 25.1 | -2.1 | -204 | 31.6 | -129 | -2.1 | 44.7 |  |
| O=C1OC(c2ccc(O)c(S(=O)(=O)[O-])c2)(c2ccc(O)c(S(=O)(=O)[O-])c2)c2c(Br)c(Br)c(Br)c(Br)c21.[Na+].[Na+] [NCGC00159391-03] |  | 4 | -20 |  |  | 31 | 50.1 | -32 | -1.4 | 15.8 |  |
| O=C([O-])c1c(Cl)c(Cl)c(Cl)c(Cl)c1-c1c2cc(I)c(=O)c(I)c-2oc2c(I)c(O)c(I)cc12.[Na+] [NCGC00159508-05] |  |  | 261 |  |  | 311 | 44.7 | -26 | -2.4 | 13.6 |  |
| OCc1ccc(-c2ccc(-c3ccc(CO)s3)o2)s1 [NCGC00159570-01] |  | 2.4 | 58 |  |  | 97 | 50.1 | -57 | -3 | 34.1 |  |
| CC(C)Oc1cccc(NC(=O)c2ccccc2C(F)(F)F)c1 [NCGC00160537-04] |  |  |  |  |  | -39 | 39.8 |  |  | 100 | Confirm? (counterscreen) ([2]; Table S3, counterscreen, YES/NO call): YES |
| O=[N+]([O-])c1ccc(O)c2ncccc12 [NCGC00160664-03] |  |  |  |  |  |  |  | -25 | -1.4 | 31.6 | CONFIRMATORY SCREEN Efficacy (%) ([1]; confirmatory screen): 0%; CONFIRMATORY SCREEN Curve Class ([1]; confirmatory screen): 4; COUNTERSCREEN Efficacy (%) ([2]; counterscreen): -13%; COUNTERSCREEN Curve Class ([2]; counterscreen): 4 |
| COc1cccc2nc(-c3cccs3)nc(NN3C(=O)C=C(C)C3=O)c12 [NCGC00161703-02] |  |  |  |  |  |  |  | -24 |  | 3 | Efficacy (%) (confirmatory screen) ([1]; confirmatory screen): -63%; Confirm? (confirmatory screen) ([1]; confirmatory screen, YES/NO): YES; Curve Class (confirmatory screen) [1, 15]: -1.4; IC50 ([1]; confirmatory screen, read-out: IC50 [μM] (confirmatory screen)): 8.9 µM; Curve Class [1, 16]: -1.4; Efficacy (%) (counterscreen) ([2]; counterscreen): -30%; Curve Class (counterscreen) ([2]; counterscreen, negative sign = inhibitory curve): -1.4; IC50 ([2]; counterscreen): 17.8 µM |
| CO[C@H](C(=O)[C@@H](O)[C@@H](C)O)[C@@H]1Cc2cc3cc(C[C@H]4C[C@H](O[C@H]5C[C@@H](O)[C@H](O)[C@@H](C)O5)[C@@H](O)[C@@H](C)O4)c(C)c(O)c3c(O)c2C(=O)[C@H]1O[C@@H]1C[C@H](O[C@@H]2C[C@H](O[C@@H]3C[C@](O)(CO)[C@@H](O)[C@H](C)O3)[C@@H](O)[C@H](C)O2)[C@@H](O)[C@H](C)O1 [NCGC00162423-04] | YES | -2.1 | -183 | 31.6 | -1.1 | -181 | 15.8 | -51 | -2.2 | 24.1 |  |
| Cc1ccc(C(=O)Nc2ccc(S(=O)(=O)O)c3cc(S(=O)(=O)O)cc(S(=O)(=O)O)c23)cc1NC(=O)c1cccc(NC(=O)Nc2cccc(C(=O)Nc3cc(C(=O)Nc4ccc(S(=O)(=O)O)c5cc(S(=O)(=O)O)cc(S(=O)(=O)O)c45)ccc3C)c2)c1 [NCGC00163318-03] |  |  |  |  |  |  |  | -22 |  | 0.7 | CONFIRMATORY SCREEN Confirm? ([1]; confirmatory screen, YES/NO call): YES; CONFIRMATORY SCREEN Curve Class [1, 15]: -1.4; CONFIRMATORY SCREEN Efficacy (%) ([1]; confirmatory screen, negative = inhibition): -15%; IC50 ([1]; confirmatory screen, read-out: CONFIRMATORY SCREEN IC50): 7.9 µM; Curve Class [1, 16]: -1.4; COUNTERSCREEN Efficacy (%) [2, 17]: 16%; COUNTERSCREEN Confirm? ([2]; scrambled-peptide counterscreen, YES/NO call): YES; COUNTERSCREEN Curve Class [2, 17]: 4 |

— publication PMC11249646, “Small-Molecule Disruptors of the Interaction between Calcium- and Integrin-Binding Protein 1 and Integrin αIIbβ3 as Novel Antiplatelet Agents” (ACS Pharmacology & Translational Science, 2024)
